From patent US6608086B2, “Dihydropyridines and new uses thereof” (Synaptic Pharmaceutical Corporation, priority 1993, dated 2003)
Like-named read-outs stand apart in the source and are kept apart here.

Tests used:
[1] = target: T1, α1A Human Adrenergic Receptor (Homo sapiens, UniProt P25100); assay: Radioligand binding, [3H]prazosin, cloned human α1A adrenergic receptor
T1 construct: The entire coding region of α1A (1719 bp); expressed in transfected cells
T1 sequence (P25100 1-572): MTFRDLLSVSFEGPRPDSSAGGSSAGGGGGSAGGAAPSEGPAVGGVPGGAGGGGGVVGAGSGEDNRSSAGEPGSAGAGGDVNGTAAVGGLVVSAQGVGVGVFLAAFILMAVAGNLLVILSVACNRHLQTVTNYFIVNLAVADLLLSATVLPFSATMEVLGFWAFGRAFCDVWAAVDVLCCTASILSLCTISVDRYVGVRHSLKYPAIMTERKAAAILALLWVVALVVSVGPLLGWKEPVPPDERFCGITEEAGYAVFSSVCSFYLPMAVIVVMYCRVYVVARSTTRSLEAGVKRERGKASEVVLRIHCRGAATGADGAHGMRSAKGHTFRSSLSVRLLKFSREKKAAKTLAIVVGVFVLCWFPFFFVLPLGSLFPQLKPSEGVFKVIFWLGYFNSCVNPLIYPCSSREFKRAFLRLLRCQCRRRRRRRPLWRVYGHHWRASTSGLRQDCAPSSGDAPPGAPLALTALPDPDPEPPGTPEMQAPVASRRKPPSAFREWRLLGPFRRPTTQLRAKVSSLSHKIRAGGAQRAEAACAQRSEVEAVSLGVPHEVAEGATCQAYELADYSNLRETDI
Outline: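 Binding of [3H]prazosin (0.5 nM) was measured at 37° C over 20 min in pH 7.5 Tris/MgCl2/ascorbate buffer, using membrane preparations of LM(tk−) cells expressing cloned human α1A receptor. Filtration through GF/B filters stopped the reaction. 10 μM phentolamine gave nonspecific binding.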

α2A receptor = target: T2, α2A receptor (Homo sapiens, UniProt P08913); assay: Competition binding, [3H]rauwolscine, human α2A receptor; conditions: [3H]rauwolscine, human receptor, LM(tk-) cell lysates; mean; read-out: PKi alpha-2 2a (converted)
T2 construct: host or cells: LM(tk-) cells, line L-α2A
T2 sequence (P08913 1-465): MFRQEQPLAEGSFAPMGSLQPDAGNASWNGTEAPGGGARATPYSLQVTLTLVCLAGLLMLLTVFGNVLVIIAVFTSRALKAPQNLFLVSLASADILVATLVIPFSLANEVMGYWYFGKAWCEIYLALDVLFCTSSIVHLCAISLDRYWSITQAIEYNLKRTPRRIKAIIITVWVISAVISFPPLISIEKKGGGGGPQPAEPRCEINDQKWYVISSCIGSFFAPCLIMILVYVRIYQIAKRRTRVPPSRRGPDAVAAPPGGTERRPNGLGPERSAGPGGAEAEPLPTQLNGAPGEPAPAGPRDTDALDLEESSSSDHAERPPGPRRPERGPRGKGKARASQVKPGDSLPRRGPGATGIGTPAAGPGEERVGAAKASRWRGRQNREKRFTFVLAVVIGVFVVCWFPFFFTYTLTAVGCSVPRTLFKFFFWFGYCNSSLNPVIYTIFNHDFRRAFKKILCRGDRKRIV
Text: (§1) The protocols for these experiments are given below.
(§2) α2 Human Adrenergic Receptors:
(§3) To determine the potency of […], antagonists at the α2 receptors, LM(tk−) cell lines stably transfected with the genes encoding the α2A, α2B, and α2C receptors were used. The cell line expressing the α2A receptor is designated L-α2A, and was deposited on Nov. […] The cell line expressing the α2B receptor is designated L-NGC-α2B, and was deposited on Oct. […] The cell line expressing the α2C receptor is designated L-α2C, and was deposited on Nov. […] Cell lysates were prepared as described above (see Radioligand Binding Assays), and suspended in 25 mM glycylglycine buffer (pH 7.6 at room temperature). Equilibrium competition binding assay were performed using [3H]rauwolscine (0.5 nM), and nonspecific binding was determined by incubation with 10 μM phentolamine. The bound radioligand was separated by filtration through GF/B filters using a cell harvester.

α2B receptor = target: T3, α2B receptor (Homo sapiens, UniProt P18089); assay: Competition binding, [3H]rauwolscine, human α2B receptor; conditions: [3H]rauwolscine, human receptor, LM(tk-) cell lysates; mean; read-out: PKi alpha-2 2b (converted)
T3 construct: host or cells: LM(tk-) cells, line L-NGC-α2B
T3 sequence (P18089 1-450): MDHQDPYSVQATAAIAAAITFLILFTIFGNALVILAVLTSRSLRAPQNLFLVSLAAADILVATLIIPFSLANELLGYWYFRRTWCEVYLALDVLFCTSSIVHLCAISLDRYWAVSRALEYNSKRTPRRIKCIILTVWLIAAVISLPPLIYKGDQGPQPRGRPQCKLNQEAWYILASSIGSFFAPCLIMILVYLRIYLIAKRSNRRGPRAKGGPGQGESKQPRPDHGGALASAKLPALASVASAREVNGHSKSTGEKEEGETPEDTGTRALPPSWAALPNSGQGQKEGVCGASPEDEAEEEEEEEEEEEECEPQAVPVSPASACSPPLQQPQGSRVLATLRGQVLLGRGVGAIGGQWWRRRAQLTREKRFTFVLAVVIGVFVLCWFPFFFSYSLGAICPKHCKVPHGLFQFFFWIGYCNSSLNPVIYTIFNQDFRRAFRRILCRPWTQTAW
Text: as §1, §2, §3

α2C receptor = target: T4, α2C receptor (Homo sapiens, UniProt P18825); assay: Competition binding, [3H]rauwolscine, human α2C receptor; conditions: [3H]rauwolscine, human receptor, LM(tk-) cell lysates; mean; read-out: PKi alpha-2 2c (converted)
T4 construct: host or cells: LM(tk-) cells, line L-α2C
T4 sequence (P18825 1-462): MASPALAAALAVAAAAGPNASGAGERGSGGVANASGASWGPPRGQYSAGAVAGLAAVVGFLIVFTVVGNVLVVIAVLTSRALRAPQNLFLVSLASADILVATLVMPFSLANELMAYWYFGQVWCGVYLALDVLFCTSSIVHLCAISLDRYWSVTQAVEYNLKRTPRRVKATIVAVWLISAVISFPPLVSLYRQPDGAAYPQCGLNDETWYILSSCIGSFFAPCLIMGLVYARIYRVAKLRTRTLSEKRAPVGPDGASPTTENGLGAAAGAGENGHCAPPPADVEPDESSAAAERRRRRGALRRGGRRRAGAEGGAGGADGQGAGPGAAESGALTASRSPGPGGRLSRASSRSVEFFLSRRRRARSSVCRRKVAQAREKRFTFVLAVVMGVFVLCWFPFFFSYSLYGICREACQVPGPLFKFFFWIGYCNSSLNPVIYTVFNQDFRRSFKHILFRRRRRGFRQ
Text: as §1, §2, §3

[2] = target: T5, α1B Human Adrenergic Receptor (Homo sapiens, UniProt P35368); assay: Radioligand binding, [3H]prazosin, cloned human α1B adrenergic receptor; conditions: cloned human receptor, LM(tk-) cell membranes, mean, read-out: PKi alpha-1 1b (converted)
T5 construct: The entire coding region of α1B (1563 bp); expressed in transfected cells
T5 sequence (P35368 1-520): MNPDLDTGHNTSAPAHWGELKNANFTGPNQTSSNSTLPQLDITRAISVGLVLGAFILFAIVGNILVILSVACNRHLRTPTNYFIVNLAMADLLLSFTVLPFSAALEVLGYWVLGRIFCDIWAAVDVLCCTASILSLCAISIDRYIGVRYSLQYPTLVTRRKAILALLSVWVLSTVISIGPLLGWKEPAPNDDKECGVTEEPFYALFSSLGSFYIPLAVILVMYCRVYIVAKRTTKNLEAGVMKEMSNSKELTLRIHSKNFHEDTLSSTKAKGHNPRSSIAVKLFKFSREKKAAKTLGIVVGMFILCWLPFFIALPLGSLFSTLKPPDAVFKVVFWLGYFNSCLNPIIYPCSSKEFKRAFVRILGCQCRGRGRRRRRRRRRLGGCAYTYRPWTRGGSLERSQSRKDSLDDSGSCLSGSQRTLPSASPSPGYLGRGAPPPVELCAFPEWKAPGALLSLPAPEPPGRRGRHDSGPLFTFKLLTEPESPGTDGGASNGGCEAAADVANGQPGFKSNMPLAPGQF
Outline: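 [3H]prazosin (0.5 nM) binding was run for 20 min at 37° C in pH 7.5 Tris/MgCl2/ascorbate buffer on membranes of LM(tk−) cells stably expressing the cloned receptor. Filtration through GF/B ended the reaction; 10 μM phentolamine gave nonspecific binding.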

[3] = target: T6, α1C Human Adrenergic Receptor (Homo sapiens, UniProt P35348); assay: Radioligand binding, [3H]prazosin, cloned human α1C adrenergic receptor; conditions: cloned human receptor, LM(tk-) cell membranes, mean, read-out: PKi alpha-1 1c (converted)
T6 construct: The entire coding region of α1C (1401 bp); expressed in transfected cells
T6 sequence (P35348 1-466): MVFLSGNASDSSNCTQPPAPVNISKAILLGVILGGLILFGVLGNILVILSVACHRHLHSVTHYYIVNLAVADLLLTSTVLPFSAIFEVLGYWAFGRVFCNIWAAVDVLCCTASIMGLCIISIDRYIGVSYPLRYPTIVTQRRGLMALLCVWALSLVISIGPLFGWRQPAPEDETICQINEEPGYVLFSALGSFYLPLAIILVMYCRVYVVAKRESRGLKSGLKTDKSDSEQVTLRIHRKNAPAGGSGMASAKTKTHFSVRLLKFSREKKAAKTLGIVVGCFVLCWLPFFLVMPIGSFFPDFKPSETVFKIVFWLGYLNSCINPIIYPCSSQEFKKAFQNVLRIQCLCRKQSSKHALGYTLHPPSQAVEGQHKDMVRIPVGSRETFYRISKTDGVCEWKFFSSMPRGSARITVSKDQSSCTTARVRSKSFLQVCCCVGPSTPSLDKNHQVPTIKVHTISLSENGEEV
Outline: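 Read-out is filter-retained [3H]prazosin (0.5 nM) bound to membranes of LM(tk−) cells stably carrying the human α1C receptor. Incubation ran 20 min at 37° C. at pH 7.5, with 10 μM phentolamine marking nonspecific binding.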

L-type calcium channel = target: T7, L-type calcium channel (Rattus norvegicus, UniProt P22002); assay: Competition binding of [3H]nitrendipine to membrane fragments of rat cardiac muscle
T7 construct: membrane fragments of rat cardiac muscle; from tissue; host or cells: rat cardiac muscle membranes
Experimental: as §1
Determination of the Activity of al Antagonists at Calcium Channels
Briefly, the tissue was minced and homogenized in 50 mM Tris-HCl (pH 7.4) containing 0.1 mM phenylmethylsulfonyl fluoride. The homogenates were centrifuged at 1000 g for 15 minutes, the resulting supernatant was centrifuged at 45,000 g for 15 minutes. The 45,000 g pellet was suspended in buffer and centrifuged a second time. Aliquots of membrane protein were incubated for 30 minutes at 37° C. in the presence of [3H]nitrendipine (1 nM), and nonspecific binding was determined in the presence of 10 μM nifedipine. The bound radioligand was separated by filtration through GF/B filters using a cell harvester.

[4] = [3H]prazosin, cloned human receptor, LM(tk-) cell membranes, mean, read-out: PKi alpha-1 1a (converted)

T7 sequence (P22002 whole entry, other chains not shown, the tested form may be a part): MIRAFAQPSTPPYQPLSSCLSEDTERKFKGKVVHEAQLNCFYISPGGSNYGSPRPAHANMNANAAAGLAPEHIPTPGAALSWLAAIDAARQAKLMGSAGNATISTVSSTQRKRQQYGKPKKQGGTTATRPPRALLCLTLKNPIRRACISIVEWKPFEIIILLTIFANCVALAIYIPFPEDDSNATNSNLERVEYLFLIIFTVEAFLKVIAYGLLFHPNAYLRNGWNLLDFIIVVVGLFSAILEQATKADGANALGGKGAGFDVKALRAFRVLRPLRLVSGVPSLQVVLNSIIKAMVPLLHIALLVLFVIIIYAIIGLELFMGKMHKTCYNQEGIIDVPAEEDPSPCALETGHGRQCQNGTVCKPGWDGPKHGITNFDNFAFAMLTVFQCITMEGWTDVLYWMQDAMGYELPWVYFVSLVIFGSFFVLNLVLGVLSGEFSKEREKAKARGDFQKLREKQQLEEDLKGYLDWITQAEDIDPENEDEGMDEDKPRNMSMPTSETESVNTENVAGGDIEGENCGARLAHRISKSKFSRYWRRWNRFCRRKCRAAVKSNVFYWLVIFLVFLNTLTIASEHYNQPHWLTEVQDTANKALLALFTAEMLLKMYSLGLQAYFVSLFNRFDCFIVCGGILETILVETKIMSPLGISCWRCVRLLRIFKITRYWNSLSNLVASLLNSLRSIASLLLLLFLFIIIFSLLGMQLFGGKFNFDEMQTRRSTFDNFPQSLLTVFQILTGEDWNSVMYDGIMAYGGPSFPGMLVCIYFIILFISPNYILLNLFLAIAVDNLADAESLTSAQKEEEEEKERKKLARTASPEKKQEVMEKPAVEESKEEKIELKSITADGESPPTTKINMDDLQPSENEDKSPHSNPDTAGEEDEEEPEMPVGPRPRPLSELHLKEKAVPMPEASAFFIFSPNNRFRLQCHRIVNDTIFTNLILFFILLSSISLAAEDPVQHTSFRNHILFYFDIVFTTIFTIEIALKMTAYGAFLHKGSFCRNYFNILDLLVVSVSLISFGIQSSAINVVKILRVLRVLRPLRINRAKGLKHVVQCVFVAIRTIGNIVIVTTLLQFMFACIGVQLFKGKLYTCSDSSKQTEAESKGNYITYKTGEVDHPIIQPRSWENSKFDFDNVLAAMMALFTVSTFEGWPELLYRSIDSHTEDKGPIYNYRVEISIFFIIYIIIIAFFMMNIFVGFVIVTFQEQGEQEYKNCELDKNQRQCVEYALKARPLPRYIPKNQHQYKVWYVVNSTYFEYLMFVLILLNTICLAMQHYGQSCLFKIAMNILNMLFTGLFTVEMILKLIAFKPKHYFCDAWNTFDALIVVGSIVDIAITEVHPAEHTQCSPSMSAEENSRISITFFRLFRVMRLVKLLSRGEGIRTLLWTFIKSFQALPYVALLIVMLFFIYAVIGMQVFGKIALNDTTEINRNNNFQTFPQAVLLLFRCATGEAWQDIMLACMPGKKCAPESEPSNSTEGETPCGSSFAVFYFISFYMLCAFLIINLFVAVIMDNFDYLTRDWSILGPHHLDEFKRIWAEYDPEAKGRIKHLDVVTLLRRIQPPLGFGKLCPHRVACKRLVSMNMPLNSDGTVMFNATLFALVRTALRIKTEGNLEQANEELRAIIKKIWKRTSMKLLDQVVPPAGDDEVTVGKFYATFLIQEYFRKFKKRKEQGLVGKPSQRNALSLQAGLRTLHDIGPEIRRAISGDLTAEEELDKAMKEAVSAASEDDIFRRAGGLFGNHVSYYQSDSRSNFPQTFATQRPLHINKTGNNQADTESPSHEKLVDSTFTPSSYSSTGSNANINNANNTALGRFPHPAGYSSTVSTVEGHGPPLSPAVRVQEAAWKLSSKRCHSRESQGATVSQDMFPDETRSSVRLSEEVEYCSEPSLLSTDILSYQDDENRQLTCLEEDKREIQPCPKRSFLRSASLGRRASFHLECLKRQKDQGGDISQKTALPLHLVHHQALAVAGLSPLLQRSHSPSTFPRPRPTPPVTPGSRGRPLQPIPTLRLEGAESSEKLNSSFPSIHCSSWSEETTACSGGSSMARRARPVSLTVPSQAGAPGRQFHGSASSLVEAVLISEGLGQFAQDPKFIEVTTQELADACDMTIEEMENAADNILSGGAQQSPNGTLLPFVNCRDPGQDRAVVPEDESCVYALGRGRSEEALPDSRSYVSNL
T7 sequence (P54290 25-944 partner limits assumed, other chains not shown): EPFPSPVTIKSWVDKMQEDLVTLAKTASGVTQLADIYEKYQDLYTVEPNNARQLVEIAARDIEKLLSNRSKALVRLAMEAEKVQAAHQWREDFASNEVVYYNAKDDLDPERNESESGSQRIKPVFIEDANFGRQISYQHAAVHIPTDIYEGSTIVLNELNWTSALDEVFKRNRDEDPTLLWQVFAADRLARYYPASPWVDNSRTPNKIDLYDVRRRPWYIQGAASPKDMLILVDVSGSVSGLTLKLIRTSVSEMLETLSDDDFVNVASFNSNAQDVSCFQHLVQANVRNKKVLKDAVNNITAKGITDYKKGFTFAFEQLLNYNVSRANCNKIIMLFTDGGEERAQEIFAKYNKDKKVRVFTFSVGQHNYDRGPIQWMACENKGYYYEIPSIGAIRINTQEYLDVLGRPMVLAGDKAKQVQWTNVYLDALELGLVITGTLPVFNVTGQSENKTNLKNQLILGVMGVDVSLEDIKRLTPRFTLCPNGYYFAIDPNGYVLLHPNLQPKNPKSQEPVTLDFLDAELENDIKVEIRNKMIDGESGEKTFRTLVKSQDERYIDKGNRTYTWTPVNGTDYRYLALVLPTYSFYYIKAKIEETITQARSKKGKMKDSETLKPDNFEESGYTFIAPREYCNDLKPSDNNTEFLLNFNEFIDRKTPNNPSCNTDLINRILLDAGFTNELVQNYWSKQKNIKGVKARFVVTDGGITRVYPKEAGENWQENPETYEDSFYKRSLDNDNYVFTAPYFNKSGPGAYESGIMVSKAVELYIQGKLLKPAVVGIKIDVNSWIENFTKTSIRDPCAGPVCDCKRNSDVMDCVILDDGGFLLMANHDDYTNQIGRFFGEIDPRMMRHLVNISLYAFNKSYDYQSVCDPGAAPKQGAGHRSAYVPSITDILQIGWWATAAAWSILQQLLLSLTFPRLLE
T7 sequence (P54290 945-1091 partner limits assumed, other chains not shown): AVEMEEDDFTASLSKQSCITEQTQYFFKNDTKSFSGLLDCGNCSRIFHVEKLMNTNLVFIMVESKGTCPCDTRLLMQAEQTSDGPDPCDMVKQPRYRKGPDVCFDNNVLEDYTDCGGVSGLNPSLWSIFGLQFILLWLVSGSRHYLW

Compound | Ki [1, 4] [nM] | Ki (α2A receptor) [nM] | Ki (α2B receptor) [nM] | Ki (α2C receptor) [nM] | melting point [°C] | Ki [2] [nM] | Ki [3] [nM] | also measured
COC(=O)C1(c2ccccc2)CCN(CCCNC(=O)C2=C(C)NC(C)=C(C(=O)OCCO)C2c2ccc([N+](=O)[O-])cc2)CC1 (centres unmarked) [Example 207, 1,4-Dihydro-2,6-dimethyl-5-(2-hydroxyethoxycarbonyl)-3-{N-[3-(4-methoxycarbonyl-4-phenylpiperidin-1-yl)propyl]}carboxamido-4-(4-nitrophenyl)pyridine] | 1860 | 724 | 955 | 1780 | 90 to 91 |  |  | 
CC1=C(C(N)=O)C(c2ccc([N+](=O)[O-])cc2)C(C(=O)NCCCN2CCC(c3ccccc3)CC2)=C(COCCN=[N+]=[N-])N1 (centres unmarked) [Example 216, 2-((Azidoethyl)oxy)methyl-5-carboxamido-1,4-dihydro-6-methyl-4-(4-nitro)phenyl-3-(N-(3-(4-phenylpiperidin-1-yl)propyl))carboxamidopyridine] | 60.3 |  |  |  |  | 7.08 | 1.7 | Ki (L-type calcium channel; [3H]nitrendipine, rat cardiac muscle membranes, mean, read-out: PKi Ca (converted)): 1 µM
COC(=O)C1(c2ccccc2)CCN(CCCNC(=O)C2=C(C)NC(C)=C(C(=O)O)C2c2ccc([N+](=O)[O-])cc2)CC1 (centres unmarked) [Example 204, 1,4-Dihydro-2,6-dimethyl-3-{N-[3-(4-methoxycarbonyl-4-phenylpiperidin-1-yl)propyl]}carboxamido-4-(4-nitrophenyl)pyridine-5-carboxylic acid] |  | 1170 | 1700 | 1230 | 139 to 141 |  |  | 
CCOC(=O)C1=C(C)NC(C)=C(C(=O)NCCCN2CCC(C(=O)OC)(c3ccccc3)CC2)C1c1ccc([N+](=O)[O-])cc1 (centres unmarked) [Example 208] | 741 | 2690 | 1260 | 977 | 73 to 75 |  |  | 
CCC1=C(C(N)=O)C(c2ccc([N+](=O)[O-])cc2)C(C(=O)NCCCN2CCC(c3ccccc3)(c3ccccc3)CC2)=C(COCCN)N1 (racemic) [(±)-144, 2-((2-Aminoethyl)oxy)methyl-5-carboxamido-6-ethyl-1,4-dihydro-4-(4-nitro)phenyl-3-(N-(3-(4,4-diphenylpiperidin-1-yl)propyl))carboxamidopyridine] |  |  |  |  |  |  |  | Ki (L-type calcium channel; [3H]nitrendipine, rat cardiac muscle membrane fragments, L-type calcium channel, read-out: pKi Ca (converted)): 12.6 µM
CC1=C(C(N)=O)C(c2ccc([N+](=O)[O-])cc2)C(C(=O)NCCCN2CCC(c3ccccc3)(c3ccccc3)CC2)=C(COCCN)N1 (centres unmarked) [Example 217, 2-((2-Aminoethyl)oxy)methyl-5-carboxamido-1,4-dihydro-6-methyl-3-(N-(3-(4,4-diphenylpiperidin-1-yl)propyl))carboxamido-4-(4-nitro)phenylpyridine] |  |  |  |  |  | 447 | 2.45 | Ki ([1]; PKi alpha-1 1a): 776 nM; Ki (L-type calcium channel; PKi Ca): 8.13 µM
